Measured values: patent US5155031A, “Use of pervanadate as an inhibitor of phosphotyrosine phosphatase” (priority 1990, dated 1992)
Entries after “also recorded” stand apart in the source; their conditions may differ. Read-outs that look alike come from different tables or passages of the source.

Key:
[1] = test system: rat hepatocyte phosphotyrosine phosphatase; test: insulin receptor tyrosine dephosphorylation catalyzed by crude phosphotyrosine phosphatase from rat liver microsomes; type: biochemical
Protocol: Since vanadate and pervanadate may have different specificities for various phosphoprotein phosphatases, their inhibitory effects were separated tested on insulin receptor tyrosine dephosphorylation catalyzed by a crude preparation of phosphotyrosine phosphatase activity extracted from rat liver microsomes.
The samples were processed as in example 1, except that after being washed, the immunoprecipitate was incubated with or without 10^-4 M vanadate, 10^-4 M H2 O2 or 10^-4 m pervanadate in the presence or absence of an equal volume, 50 μL, of rat hepatocyte phosphotyrosine phosphatase (as described above) for 20 min at 30° C. with vigorous shaking.

[2] = test system: tyrosine phosphatases; details: cited from earlier work
[3] = test system: alkaline phosphatase; test: alkaline phosphatase catalyzed dephosphorylation of the lectin-purified insulin receptor; type: biochemical
Protocol: To do so, lectin-purified insulin receptor (6.0 fmol of insulin binding) was preincubated with 10^-7 M insulin for 60 min at 4° C. Phosphorylation was initiated by addition of [γ^-32 P]ATP, and the insulin receptor was immunoprecipitated by incubating with anti-insulin receptor antibody (140 μg of protein) for 4h at 4° C. followed by incubation with protein A-SEPHAROSE * beads for 1 h at 4° C. The immunoprecipitate was washed twice with 50 mM HEPES buffer, pH 7.6, containing 0.1% TRITON X-100 * detergent and 0.1% SDS and once with the above buffer without SDS. After being washed, the immunoprecipitate was incubated with or without the indicated concentrations of vanadate, H2 O2, or pervanadate in the presence or absence of a 15 units.mL solution of alkaline phosphatase for 60 min at 4° C. with vigorous shaking. This sample was washed twice with 50 mM HEPES buffer, pH 7.6, containing 0.1% TRITON X-100 * detergent and subjected to SDS-PAGE followed by radioautography as shown in FIG. 1. Densitometric scanning of the radioautographs was done with a ZEINER * soft laser scanning densitometer (Model SL-504-XL).

[4] = test system: tyrosine kinase; details: cited from earlier work
[5] = stability of the pervanadate solution; type: physicochemical; details: after catalase 200 μg/mL to remove residual H2 O2
Protocol: The vanadate solution used in the examples presented below was prepared as described in Kadota et al. supra, to avoid changes in pH and the generation of colored decavanadate (orange-yellow) or vanadyl ion, VO^2+ (blue). The solution of pervanadate was prepared by mixing vanadate or vanadate containing substance with H2 O2 or a peroxide-containing substance (10^-3 M unless otherwise indicated) for 15 min at 22° C. This was followed by the addition of catalase, 200 μg/mL, to remove residual H2 O2. […] The concentration of pervanadate generated is denoted by the vanadate concentration added to the mixture.

[6] = test system: insulin receptor; details: adipocytes, cited from earlier work
[7] = molecular target: T1, insulin receptor (Rattus norvegicus, UniProt P15127); test: Insulin Receptor Autophosphorylation Assay; type: biochemical; details: 10^-3 to 10^-7 M, 15 min, 37° C.; WGA-purified adipocyte insulin receptors
T1 construct: Insulin receptors were solubilized and partially purified by WGA chromatography; endogenous in cells; host or cells: isolated rat adipocytes
Protocol: To elucidate further the mechanism of action of pervanadate, this compound was added in vitro to solubilized WGA-purified adipocyte insulin receptors.
Isolated rat adipocytes were incubated with different concentrations of pervanadate (10^-3 to 10^-7 M), 10 ng/mL (1.7×10^-9 M) insulin, or no additions for 15 min at 37° C. Insulin receptors were solubilized and partially purified by WGA chromatography. […] An aliquot of insulin receptor (5-10 fmol of insulin binding) was used in the autophosphorylation assay as described below, in the presence or absence of in vitro insulin, followed by SDS-PAGE and radioautography.
The Insulin Receptor Autophosphorylation Assay proceeded as follows: lectin-purified insulin receptor (5-10 fmol of insulin binding) was incubated with or without 10^-7 M insulin in a 50 mM HEPES buffer containing 8 mM MnCl2, 10 mM MgCl2, 270 μM dithiothreitol, and 10 μg/mL bovine serum albumin for 1 h at 4° C., in a total volume of 90 μL. The phosphorylation reaction was initiated by the addition of 10 μL of diluted [γ^-32 P]ATP (10 Ci/mmol) to a final concentration of 50 μM, and the reaction mixture was further incubated for 15 min at 4° C. […]

[8] = increasing concentrations, 15 units/mL alkaline phosphatase, 60 min, 4° C., SDS-PAGE, radioautography

T1 sequence (P15127 764-1383 limits assumed): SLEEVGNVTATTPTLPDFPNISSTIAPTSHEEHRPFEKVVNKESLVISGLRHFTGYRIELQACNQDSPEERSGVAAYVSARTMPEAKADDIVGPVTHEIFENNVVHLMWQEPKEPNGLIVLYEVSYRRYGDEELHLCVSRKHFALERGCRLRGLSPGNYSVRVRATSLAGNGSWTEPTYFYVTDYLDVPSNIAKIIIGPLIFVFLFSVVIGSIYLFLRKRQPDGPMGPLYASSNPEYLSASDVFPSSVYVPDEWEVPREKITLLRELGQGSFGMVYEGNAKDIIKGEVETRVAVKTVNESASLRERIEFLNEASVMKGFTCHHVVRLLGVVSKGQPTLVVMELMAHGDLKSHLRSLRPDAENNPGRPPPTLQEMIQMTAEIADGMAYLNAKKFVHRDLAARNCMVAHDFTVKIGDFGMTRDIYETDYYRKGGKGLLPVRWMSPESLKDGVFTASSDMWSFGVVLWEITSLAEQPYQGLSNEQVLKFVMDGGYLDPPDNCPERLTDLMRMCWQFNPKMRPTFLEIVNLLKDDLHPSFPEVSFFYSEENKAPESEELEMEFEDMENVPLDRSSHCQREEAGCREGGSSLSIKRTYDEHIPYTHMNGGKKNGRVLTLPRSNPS
T1 sequence (P15127 27-759 partner limits assumed): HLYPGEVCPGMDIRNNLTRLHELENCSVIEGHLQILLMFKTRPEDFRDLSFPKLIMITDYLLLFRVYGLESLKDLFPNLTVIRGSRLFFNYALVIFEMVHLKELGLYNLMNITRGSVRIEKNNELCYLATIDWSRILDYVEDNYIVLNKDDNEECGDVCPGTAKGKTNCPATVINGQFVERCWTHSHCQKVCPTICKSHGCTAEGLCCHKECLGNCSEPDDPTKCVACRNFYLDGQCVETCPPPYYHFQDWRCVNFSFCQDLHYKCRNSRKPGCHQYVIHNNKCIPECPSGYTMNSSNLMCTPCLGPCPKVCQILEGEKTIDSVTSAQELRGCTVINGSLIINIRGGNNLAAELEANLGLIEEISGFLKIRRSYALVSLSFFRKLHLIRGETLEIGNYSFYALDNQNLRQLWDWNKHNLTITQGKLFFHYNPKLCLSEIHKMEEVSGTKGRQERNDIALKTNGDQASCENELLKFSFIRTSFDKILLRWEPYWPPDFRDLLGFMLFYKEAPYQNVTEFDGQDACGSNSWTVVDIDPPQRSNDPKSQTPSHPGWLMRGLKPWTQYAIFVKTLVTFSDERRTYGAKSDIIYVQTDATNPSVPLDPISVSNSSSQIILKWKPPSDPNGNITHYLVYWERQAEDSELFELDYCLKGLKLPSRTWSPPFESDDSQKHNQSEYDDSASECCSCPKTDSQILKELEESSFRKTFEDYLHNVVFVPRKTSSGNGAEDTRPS

Row | Molecule | inhibition of insulin receptor tyrosine dephosphorylation catalyzed by rat hepatocyte phosphotyrosine phosphatase ([1]; 10^-4 M, 20 min, 30° C.) | inhibition of tyrosine phosphatases [2] | inhibition of alkaline phosphatase-catalyzed dephosphorylation of 32P-labeled insulin receptor β-subunit [3, 8] | inhibition of insulin receptor tyrosine dephosphorylation catalyzed by rat hepatocyte phosphotyrosine phosphatase [1] | inhibition of alkaline phosphatase-catalyzed dephosphorylation of 32P-labeled insulin receptor β-subunit ([3]; 10^-3 M alone) | stimulation of autophosphorylation of exogenous tyrosine kinase activity [4] | time the peroxidized form of vanadate is stable without further addition of H2 O2 [5] | in situ tyrosine phosphorylation of the insulin receptor [6] | activation of the insulin receptor kinase ([6]; time course versus insulin) | stimulation of insulin receptor autophosphorylation [7]
1 | [O]=[V]([O-])([O-])[O-] [vanadate] | inhibited dephosphorylation but with less efficacy | inhibit tyrosine phosphatases | inhibited the dephosphorylation of the ^32 P-labeled insulin receptor in a dose- dependent manner |  |  |  |  |  |  | 
2 | OO [H2 O2, hydrogen peroxide, reference compound] |  |  |  | without effect | without effect |  |  |  |  | 
3 | pervanadate | powerfully inhibited tyrosine dephosphorylation; also recorded: potent inhibitor; also recorded: more efficacious than vanadate |  | much less than that by vanadate alone; also recorded: does not inhibit |  |  | does not either stimulate | 2 h | maximal effects similar to that of insulin | activates the insulin receptor kinase but with a slower time course than insulin | did not significantly stimulate autophosphorylation
